Test results reported in patent US20240148709A1, “METHODS OF TREATING EYE PAIN AND EYE DISORDERS” (Aisa Pharma, Inc., priority 2022, published 2024).

Tested on: participants with SSc-RP
Experiment: Scleroderma Health Assessment Questionnaire (SHAQ), Phase 2a study Part A
Assay type: in vivo, human
Conditions: for % change in Pain (SHAQ): mITT
Protocol: Part A—double-blind, placebo-controlled, parallel-group, dose selection, will assess the safety and efficacy of two doses of cilnidipine (10 mg and 20 mg), alone and in combination with tadalafil. A total of 36 participants will be randomized to one of six prespecified treatment arms. Refer to FIG. 1 for treatment arms in Part A of the study. Dosing last for 12 (±2) days in which participants will self-administer daily doses of assigned treatment in the morning. Each participant will take one capsule and one tablet to blind the active therapy being received.
The standard, validated, patient reported outcome measures tool for SSc patients, the SHAQ, will be collected at the time points specified in the study schedules (FIG. 2 and FIGS. 3A and 3B) to assess the participant's quality of life. The SHAQ includes a Raynaud's VAS that will also be reported separately.
Results: Patients in the study were administered the Scleroderma Health Assessment Questionnaire (SHAQ) at the time of study entry and during clinic visits following the treatment period. The study is a two-part, parallel arm design, prospective, double-blind, randomized study conducted in Australia (Flinders Medical Center). 27 patients were randomized into the first phase of the study, following which a DSMB meeting was held, which reviewed data on the primary study endpoint and key Raynaud's secondary endpoints. Data on the SHAQ was not available for the DSMB to review. The mITT population, in which any data was available post treatment was 24 patients was the analysis population for this first part of the study. The second part (i.e., part B) of the study will randomize 36 patients in a double blind, randomized, prospective, placebo controlled, crossover study. In the first part (i.e., Part A) of the study for which data is presented, patients were randomized into 6 groups, cilnidipine at two doses (10 and 20 mg) alone and in combination with tadalafil 5 mg, tadalafil 5 mg alone, and placebo. […] The DSMB recommended that the study proceed into its double blind prospective cross overpowered second phase and compare cilnidipine 20 mg alone to placebo.

[1] = Pooled Cilnidipine 10 mg or 20 mg (N = 7)
[2] = Pooled Cilnidipine 10 mg or 20 mg (n = 6)
[3] = cilnidipine 10 mg and/or tadalafil 5 mg arms

With COCCOC(=O)C1=C(C)NC(C)=C(C(=O)OC/C=C/c2ccccc2)C1c1cccc([N+](=O)[O-])c1 (stereo not drawn) [Cilnidipine, cilnidipine] the “% change VAS Raynauds” value (Cilnidipine 20 mg (n = 3)) was −49%, the “% change in Alternative Disability Index” value (Cilnidipine 20 mg (n = 3)) was −42% and the “% change in Standard Disability Index” value (Cilnidipine 20 mg (n = 3)) was −50%. For the same compound, the “% change overall SSc Disease Severity” value (Cilnidipine 20 mg (n = 3)) was −63% (i.e., improvement), the “% improvement in Breathing (median)” value (Cilnidipine 20 mg (n = 3)) was 67% (median) and the “% improvement in VAS Digital Ulcers” value (Cilnidipine 20 mg (n = 3)) was 35%. For the same compound, the “Alternative disability index, % improvement” value (Cilnidipine 20 mg (n = 3)) was 42% improvement, the “Standard disability Index, % improvement” value (Cilnidipine 20 mg (n = 3)) was 50% improvement and the “VAS - Breathing problems, % improvement” value (Cilnidipine 20 mg (n = 3)) was 75% improvement*. The “VAS - Raynaud's, % improvement” value (Cilnidipine 20 mg (n = 3)) was 55% improvement, the “VAS Overall Disease Severity, % improvement” value (Cilnidipine 20 mg (n = 3)) was 63% improvement and the “% change in Pain (SHAQ)” value (Cilnidipine 20 mg (n = 3)) was −53%. For the same compound, the “VAS- PAIN, % improvement” value (Cilnidipine 20 mg (n = 3), baseline 2.17 on a 0-10 VAS) was 53% improvement*, the “SHAQ overall disease severity, Change from Baseline, Max” value [1] was 0.20 and the “SHAQ overall disease severity, Change from Baseline, Mean (SD)” value [1] was −1.214 (0.7946). The “SHAQ overall disease severity, Change from Baseline, Median” value [1] was −1.500, the “SHAQ overall disease severity, Change from Baseline, Min” value [1] was −1.90 and the “SHAQ overall disease severity, Change from Baseline, Q1” value [1] was −1.800. For the same compound, the “SHAQ overall disease severity, Change from Baseline, Q3” value [1] was −0.400, the “SHAQ overall disease severity, In-Clinic Visit (Day 12), Max” value [1] was 5.20 and the “SHAQ overall disease severity, In-Clinic Visit (Day 12), Mean (SD)” value [1] was 1.486 (1.7743). For the same compound, the “SHAQ overall disease severity, In-Clinic Visit (Day 12), Median” value [1] was 1.200, the “SHAQ overall disease severity, In-Clinic Visit (Day 12), Min” value [1] was 0.00 and the “SHAQ overall disease severity, In-Clinic Visit (Day 12), Q1” value [1] was 0.200. The “SHAQ overall disease severity, In-Clinic Visit (Day 12), Q3” value [1] was 1.900, the “SHAQ overall disease severity, Percent Change from Baseline, Max” value [2] was −26.8% and the “SHAQ overall disease severity, Percent Change from Baseline, Mean (SD)” value [2] was −59.80 (25.642) %. For the same compound, the “SHAQ overall disease severity, Percent Change from Baseline, Median” value [2] was −55.86%, the “SHAQ overall disease severity, Percent Change from Baseline, Min” value [2] was −100.0% and the “SHAQ overall disease severity, Percent Change from Baseline, Q1” value [2] was −76.19%. For the same compound, the “SHAQ overall disease severity, Percent Change from Baseline, Q3” value [2] was −44.12%, the “% change VAS Raynauds” value (Pooled Cilnidipine (n = 7)) was −17% and the “% change in Alternative Disability Index” value (Pooled Cilnidipine (n = 7)) was −13%. The “% change in Standard Disability Index” value (Pooled Cilnidipine (n = 7)) was −25%, the “% change overall SSc Disease Severity” value (Pooled Cilnidipine (n = 7)) was −60% (i.e., improvement) and the “% improvement in Breathing (median)” value (Pooled Cilnidipine (n = 7)) was 41% (median). For the same compound, the “% improvement in VAS Digital Ulcers” value (Pooled Cilnidipine (n = 7)) was 19%, the “% change in Pain (SHAQ)” value (Pooled Cilnidipine (n = 7)) was −31% and the “% from baseline, Intestinal Problems, mean” value (Pooled cilnidipine) was −32.4%. The “% from baseline, Intestinal Problems, median” value (Pooled cilnidipine) was −44.1%, the “% from baseline, VAS Breathing, mean” value (Pooled cilnidipine) was −8.2% and the “% from baseline, VAS Breathing, median” value (Pooled cilnidipine) was −41.3%. For the same compound, the “% from baseline, VAS Finger Ulcers, mean” value (Pooled cilnidipine) was −17.1%, the “% from baseline, VAS Finger Ulcers, median” value (Pooled cilnidipine) was −50.9% and the “% from baseline, VAS Overall Disease Severity, mean” value (Pooled cilnidipine) was −59.8%. For the same compound, the “% from baseline, VAS Overall Disease Severity, median” value (Pooled cilnidipine) was −55.9%, the “% from baseline, VAS Pain, mean” value (Pooled cilnidipine) was −31.2% and the “% from baseline, VAS Pain, median” value (Pooled cilnidipine) was −45%. The “% from baseline, VAS Raynaud's, mean” value (Pooled cilnidipine) was −18.6%, the “% from baseline, VAS Raynaud's, median” value (Pooled cilnidipine) was −38.7% and the “% from baseline, alternative disability, mean” value (Pooled cilnidipine) was −12.9%. For the same compound, the “% from baseline, alternative disability, median” value (Pooled cilnidipine) was −22.2%, the “% from baseline, standard disability, mean” value (Pooled cilnidipine) was −25% and the “% from baseline, standard disability, median” value (Pooled cilnidipine) was −16.7%. The “SHAQ Finger Ulcers, Change from Baseline, Max” value [3] was 0.00, the “SHAQ Finger Ulcers, Change from Baseline, Mean (SD)” value [3] was −0.425 (0.5058) and the “SHAQ Finger Ulcers, Change from Baseline, Median” value [3] was −0.350. For the same compound, the “SHAQ Finger Ulcers, Change from Baseline, Min” value [3] was −1.00, the “SHAQ Finger Ulcers, Change from Baseline, Q1” value [3] was −0.850 and the “SHAQ Finger Ulcers, Change from Baseline, Q3” value [3] was 0.000. The “SHAQ Finger Ulcers, In Clinic Visit (Day 12), Max” value [3] was 1.10, the “SHAQ Finger Ulcers, In Clinic Visit (Day 12), Mean (SD)” value [3] was 0.275 (0.5500) and the “SHAQ Finger Ulcers, In Clinic Visit (Day 12), Median” value [3] was 0.000. For the same compound, the “SHAQ Finger Ulcers, In Clinic Visit (Day 12), Min” value [3] was 0.00, the “SHAQ Finger Ulcers, In Clinic Visit (Day 12), Q1” value [3] was 0.000 and the “SHAQ Finger Ulcers, In Clinic Visit (Day 12), Q3” value [3] was 0.550. For the same compound, the “SHAQ Finger Ulcers, Percent Change from Baseline, Max” value [3] was −38.9%, the “SHAQ Finger Ulcers, Percent Change from Baseline, Mean (SD)” value [3] was −69.44 (43.212) % and the “SHAQ Finger Ulcers, Percent Change from Baseline, Median” value [3] was −69.44%. For the same compound, the “SHAQ Finger Ulcers, Percent Change from Baseline, Min” value [3] was −100.0%, the “SHAQ Finger Ulcers, Percent Change from Baseline, Q1” value [3] was −100.00% and the “SHAQ Finger Ulcers, Percent Change from Baseline, Q3” value [3] was −38.89%. For the same compound, the “SHAQ Overall Change in Severity, Change from Baseline, Max” value [3] was 0.20, the “SHAQ Overall Change in Severity, Change from Baseline, Mean (SD)” value [3] was −0.900 (0.9695) and the “SHAQ Overall Change in Severity, Change from Baseline, Median” value [3] was −0.950. The “SHAQ Overall Change in Severity, Change from Baseline, Min” value [3] was −1.90, the “SHAQ Overall Change in Severity, Change from Baseline, Q1” value [3] was −1.700 and the “SHAQ Overall Change in Severity, Change from Baseline, Q3” value [3] was −0.100. For the same compound, the “SHAQ Overall Change in Severity, In Clinic Visit (Day 12), Max” value [3] was 5.20, the “SHAQ Overall Change in Severity, In Clinic Visit (Day 12), Mean (SD)” value [3] was 1.825 (2.4061) and the “SHAQ Overall Change in Severity, In Clinic Visit (Day 12), Median” value [3] was 1.050. For the same compound, the “SHAQ Overall Change in Severity, In Clinic Visit (Day 12), Min” value [3] was 0.00, the “SHAQ Overall Change in Severity, In Clinic Visit (Day 12), Q1” value [3] was 0.100 and the “SHAQ Overall Change in Severity, In Clinic Visit (Day 12), Q3” value [3] was 3.550.
